Results: patent US20110189213A1, “MYBL2 EPITOPE PEPTIDES AND VACCINES CONTAINING THE SAME” (Oncotherapy Science, Inc., priority 2008, published 2011)
Entries after “also recorded” stand apart in the source; their conditions may differ.

Legend:
Type in all cases: cell-based, human
[1] = tested on: peptide-pulsed A24LCL cells; experiment: IFN-gamma ELISPOT assay on CTLs induced with MYBL2 peptides; conditions: against peptide-pulsed target cells vs control without peptide, day 21 after 3rd stimulation
Text: (§1) Monocyte-derived dendritic cells (DCs) were used as antigen-presenting cells (APCs) to induce cytotoxic T lymphocyte (CTL) responses against peptides presented on human leukocyte antigen (HLA). DCs were generated in vitro as described elsewhere (Nakahara S et al., Cancer Res 2003 Jul. 15, 63(14): 4112-8). Specifically, peripheral blood mononuclear cells (PBMCs) isolated from a normal volunteer (HLA-A*2402 positive) by Ficoll-Plaque (Pharmacia) solution were separated by adherence to a plastic tissue culture dish (Becton Dickinson) so as to enrich them as the monocyte fraction. The monocyte-enriched population was cultured in the presence of 1000 U/ml of granulocyte-macrophage colony-stimulating factor (GM-CSF) (R&D System) and 1000 U/ml of interleukin (IL)-4 (R&D System) in AIM-V Medium (Invitrogen) containing 2% heat-inactivated autologous serum (AS). After 7 days of culture, the cytokine-induced DCs were pulsed with 20 mcg/ml of each of the synthesized peptides in the presence of 3 mcg/ml of beta2-microglobulin for 3 hr at 37 degrees C. in AIM-V Medium. The generated cells appeared to express DC-associated molecules, such as CD80, CD83, CD86 and HLA class II, on their cell surfaces (data not shown). These peptide-pulsed DCs were then inactivated by Mitomycin C (MMC) (30 mcg/ml for 30 min) and mixed at a 1:20 ratio with autologous CD8+ T cells, obtained by positive selection with CD8 Positive Isolation Kit (Dynal). These cultures were set up in 48-well plates (Corning); each well contained 1.5×10^4 peptide-pulsed DCs, 3×10^5 CD8+ T cells and 10 ng/ml of IL-7 (R&D System) in 0.5 ml of AIM-V/2% AS medium. Three days later, these cultures were supplemented with IL-2 (CHIRON) to a final concentration of 20 IU/ml. On day 7 and 14, the T cells were further stimulated with the autologous peptide-pulsed DCs. The DCs were prepared each time by the same way described above. CTL was tested against peptide-pulsed A24LCL cells after the 3rd round of peptide stimulation on day 21 (Tanaka H et al., Br J Cancer 2001 Jan. 5, 84(1): 94-9; Umano Y et al., Br J Cancer 2001 Apr. 20, 84(8): 1052-7; Uchida N et al., Clin Cancer Res 2004 Dec. 15, 10(24): 8577-86; Suda T et al., Cancer Sci 2006 May, 97(5): 411-9; Watanabe T et al., Cancer Sci 2005 August, 96(8): 498-506).
(§2) To examine specific CTL activity, interferon (IFN)-gamma enzyme-linked immunospot (ELISPOT) assay and IFN-gamma enzyme-linked immunosorbent assay (ELISA) were performed. Specifically, peptide-pulsed A24LCL (1×10^4/well) was prepared as stimulator cells. Cultured cells in 48 wells were used as responder cells. IFN-gamma ELISPOT assay and IFN-gamma ELISA assay were performed under manufacture procedure.

[2] = tested on: peptide-pulsed A24LCL cells; experiment: IFN-gamma ELISA assay on established CTL lines; conditions: target cells pulsed with corresponding peptide vs target cells without peptide pulse
Procedure: CTLs were expanded in culture using the method similar to the one described by Riddell et al. (Walter E A et al., N Engl J Med 1995 Oct. 19, 333(16): 1038-44; Riddell S R et al., Nat Med 1996 February, 2(2): 216-23). A total of 5×10^4 CTLs were suspended in 25 ml of AIM-V/5% AS medium with 2 kinds of human B-lymphoblastoid cell lines, inactivated by MMC, in the presence of 40 ng/ml of anti-CD3 monoclonal antibody (Pharmingen). One day after initiating the cultures, 120 IU/ml of IL-2 were added to the cultures. The cultures were fed with fresh AIM-V/5% AS medium containing 30 IU/ml of IL-2 on days 5, 8 and 11 (Tanaka H et al., Br J Cancer 2001 Jan. 5, 84(1): 94-9; Umano Y et al., Br J Cancer 2001 Apr. 20, 84(8): 1052-7; Uchida N et al., Clin Cancer Res 2004 Dec. 15, 10(24): 8577-86; Suda T et al., Cancer Sci 2006 May, 97(5): 411-9; Watanabe T et al., Cancer Sci 2005 August, 96(8): 498-506).
as §2

[3] = tested on: CD8+ T cells stimulated with peptide-pulsed DCs (HLA-A*2402 positive); experiment: In vitro CTL induction and establishment of CTL lines; conditions: cells of positive wells expanded
Text: as §1, with “CTL was tested against peptide-pulsed A24LCL cells after the 3rd round of peptide stimulation on day 21 (Tanaka H et al., Br J Cancer 2001 Jan. 5, 84(1): 94-9; Umano Y et al., Br J Cancer 2001 Apr. 20, 84(8): 1052-7; Uchida N et al., Clin Cancer Res 2004 Dec. 15, 10(24): 8577-86; Suda T et al., Cancer Sci 2006 May, 97(5): 411-9; Watanabe T et al., Cancer Sci 2005 August, 96(8): 498-506).” left out

Sequence | IFN-gamma production of peptide-stimulated CTLs (ELISPOT) ([1]; listed as MYBL2-A24-9-370) | IFN-gamma production of established CTL lines (ELISA) [2] | IFN-gamma production of established CTL lines (ELISA) ([2]; listed as MYBL2-A24-9-370) | Establishment of CTL lines [3] | IFN-gamma production of peptide-stimulated CTLs (ELISPOT) ([1]; listed as MYBL2-A24-10-197) | IFN-gamma production of established CTL lines (ELISA) ([2]; listed as MYBL2-A24-10-197) | IFN-gamma production of peptide-stimulated CTLs (ELISPOT) ([1]; listed as MYBL2-A24-9-100) | IFN-gamma production of established CTL lines (ELISA) ([2]; listed as MYBL2-A24-9-100) | IFN-gamma production of peptide-stimulated CTLs (ELISPOT) ([1]; listed as MYBL2-A24-10-48) | IFN-gamma production of established CTL lines (ELISA) ([2]; listed as MYBL2-A24-10-48)
EYRLDGHTI [SEQ ID NO: 2, 9-mer peptide derived from MYBL2, start position 370] | potent IFN-gamma production as compared to the control wells; also recorded: potent IFN-gamma production as compared with the control | potent IFN-gamma production against the target cells pulsed with corresponding peptide | potent IFN-gamma production as compared with the control | expanded and established CTL lines |  |  |  |  |  | 
KPPVYLLLEL [SEQ ID NO: 13, 10-mer peptide derived from MYBL2, start position 197] |  | potent IFN-gamma production against the target cells pulsed with corresponding peptide |  | expanded and established CTL lines | potent IFN-gamma production as compared to the control wells; also recorded: potent IFN-gamma production as compared with the control | potent IFN-gamma production as compared with the control |  |  |  | 
KYGTKQWTL [SEQ ID NO: 1, 9-mer peptide derived from MYBL2, start position 100] |  | potent IFN-gamma production against the target cells pulsed with corresponding peptide |  | expanded and established CTL lines |  |  | potent IFN-gamma production as compared to the control wells; also recorded: potent IFN-gamma production as compared with the control | potent IFN-gamma production as compared with the control |  | 
QFGQQDWKFL [SEQ ID NO: 12, 10-mer peptide derived from MYBL2, start position 48] |  |  |  |  |  |  |  |  | typical negative data of CTL response; also recorded: no specific IFN-gamma production was detected | typical negative data of CTL response; also recorded: no specific IFN-gamma production against peptide-pulsed target cells was observed
